Data taken from patent US12570655B2, “Cysteine covalent modifiers of AKT1 and uses thereof” (Terremoto Biosciences, Inc., priority 2023, dated 2026).
Like-named read-outs stand apart in the source and are kept apart here.

Experiments:
Assay type in all cases: cell-based
[1] = biological target: T1, AKT1 WT (Homo sapiens, UniProt P31749); assay: Live cell AKT1 WT target engagement by NanoBRET competitive probe displacement; settings: HEK293 cells transfected with kinase-NanoLuciferase fusion, 2 h at 37° C.
T1 construct: expressed in transfected cells; host or cells: HEK293
Description: (§1) Determining Live Cell AKT1 E17K, AKT1 WT, and AKT2 Target Engagement by NanoBRET Competitive Probe Displacement.
(§2) Live cell target engagement assays were performed as described (Vasta, J. D. et al. Cell Chem Biol 2018, 25(11), 206-214). Briefly, HEK293 cells were transfected with plasmids encoding kinase-NanoLuciferase fusion proteins overnight. Cells were then treated with serial dilutions of compound and an ˜EC50 concentration of fluorescently-tagged ATP-competitive tracer (Promega). After incubation for 2 h at 37° C., luciferase substrate and extracellular luciferase inhibitor were added to all wells, and luminescent intensity at 460 nm and 600 nm were measured on a multimode plate-reader. The ratio of E600/E460 was calculated to give the tracer engagement signal (BRET). IC50 values were calculated by fitting BRET values to a log(inhibitor) vs. response Hill equation.

[2] = biological target: T2, AKT1 E17K (Homo sapiens, UniProt P31749, E17K); assay: Live cell AKT1 E17K target engagement by NanoBRET competitive probe displacement; settings: HEK293 cells transfected with kinase-NanoLuciferase fusion, 2 h at 37° C.
T2 construct: expressed in transfected cells; host or cells: HEK293
How it was run: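 Luminescence ratio 600/460 nm served as readout after HEK293 cells bearing transiently expressed kinase–NanoLuciferase fusions were exposed 2 h at 37 °C to test compound alongside an ATP-competitive fluorescent tracer near EC50. Extracellular signal was quenched by a luciferase inhibitor.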

[3] = biological target: T3, AKT2 (Homo sapiens, UniProt P31751); assay: Live cell AKT2 target engagement by NanoBRET competitive probe displacement; settings: HEK293 cells transfected with kinase-NanoLuciferase fusion, 2 h at 37° C.
T3 construct: expressed in transfected cells; host or cells: HEK293
Description: as §1, §2

[4] = system: LAPC4 prostate cancer cells; assay: Antiproliferative effects in LAPC4 cells (CellTiter Glo); settings: LAPC4 cells (AKT1 E17K allele), read-out: LAPC4 proliferation IC50
How it was run: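 IC50 values reflect 72 h compound treatment of cells plated at 1,000 per well, with CellTiter Glo luminescence as the viability read-out.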

T3 sequence (P31751 whole entry, the tested form may be a part): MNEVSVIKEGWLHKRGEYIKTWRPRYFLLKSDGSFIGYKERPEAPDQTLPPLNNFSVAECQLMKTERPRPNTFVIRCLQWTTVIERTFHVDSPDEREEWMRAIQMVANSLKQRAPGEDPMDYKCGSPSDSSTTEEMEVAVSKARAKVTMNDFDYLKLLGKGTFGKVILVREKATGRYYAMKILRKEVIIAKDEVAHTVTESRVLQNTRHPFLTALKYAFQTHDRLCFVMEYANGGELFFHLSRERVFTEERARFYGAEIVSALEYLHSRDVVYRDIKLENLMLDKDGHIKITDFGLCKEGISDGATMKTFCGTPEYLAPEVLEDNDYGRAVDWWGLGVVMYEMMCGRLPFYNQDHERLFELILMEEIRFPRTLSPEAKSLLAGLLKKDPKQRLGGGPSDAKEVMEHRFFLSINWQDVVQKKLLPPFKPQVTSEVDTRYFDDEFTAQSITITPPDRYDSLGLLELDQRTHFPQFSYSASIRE
T2 sequence (P31749 whole entry E17K, the tested form may be a part): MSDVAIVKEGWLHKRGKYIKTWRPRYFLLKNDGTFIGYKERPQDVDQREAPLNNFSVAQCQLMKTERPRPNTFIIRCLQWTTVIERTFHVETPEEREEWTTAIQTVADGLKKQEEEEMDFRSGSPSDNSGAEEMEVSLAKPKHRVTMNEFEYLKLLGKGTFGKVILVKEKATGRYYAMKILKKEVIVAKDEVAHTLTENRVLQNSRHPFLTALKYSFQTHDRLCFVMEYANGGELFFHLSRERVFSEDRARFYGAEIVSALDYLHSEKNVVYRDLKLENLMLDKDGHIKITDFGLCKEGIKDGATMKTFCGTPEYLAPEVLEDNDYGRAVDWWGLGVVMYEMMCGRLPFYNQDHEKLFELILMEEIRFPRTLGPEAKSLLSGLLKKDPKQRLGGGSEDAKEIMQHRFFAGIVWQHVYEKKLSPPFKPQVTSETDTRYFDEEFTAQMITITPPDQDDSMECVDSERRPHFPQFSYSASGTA
T1 sequence (P31749 whole entry, the tested form may be a part): as the sequence (P31749 whole entry E17K, the tested form may be a part) above, with K17E counted along it

Row | Structure (SMILES) | IC50 [1] [nM] | IC50 [2] [nM] | IC50 [3] [nM] | IC50 ([4]; Homo sapiens, LAPC4, 72 h) [nM] | IC50 ([4]; 72 h) [nM]
1 | C=CC(=O)N1CCC(N[C@H]2CCc3cc(-n4c(-c5cccnc5N)nc5ccc(N6CC7CCC(C6)O7)nc54)ccc32)CC1 [Example 258, 1-(4-{[(1S)-5-[2-(2-aminopyridin-3-yl)-5-{8-oxa-3-azabicyclo[3.2.1]octan-3-yl}imidazo[4,5-b]pyridin-3-yl]-2,3-dihydro-1H-inden-1-yl]amino}piperidin-1-yl)prop-2-en-1-one] | 1320 | 94.7 | 915 | 526 | –
2 | C=CC(=O)N1CCC(N[C@@H]2c3ccc(-n4c(-c5ccccc5)nc5ccc(-n6cccn6)nc54)cc3CC2F)CC1C(F)F (single isomer, unassigned) [Example 329, 1-((2*,4*)-2-(difluoromethyl)-4-(((1R,2*)-2-fluoro-5-(2-phenyl-5-(1H-pyrazol-1-yl)-3H-imidazo[4,5-b]pyridin-3-yl)-2,3-dihydro-1H-inden-1-yl)amino)piperidin-1-yl)prop-2-en-1-one] | 156 | 5.37 | 17.9 | – | –
3 | C=CC(=O)N1CCC(N[C@H]2CCc3cc(-n4c(-c5cccnc5N)nc5ccc(-n6ccc(C7(F)CC7)n6)nc54)ccc32)CC1 [Example 323, 1-(4-{[(1S)-5-[2-(2-aminopyridin-3-yl)-5-[3-(1-fluorocyclopropyl)pyrazol-1-yl]imidazo[4,5-b]pyridin-3-yl]-2,3-dihydro-1H-inden-1-yl]amino}piperidin-1-yl)prop-2-en-1-one] | 263 | 6.22 | 45.3 | – | –
4 | C=C(F)C(=O)N1CCC(N[C@H]2CCc3cc(-n4c(-c5cccnc5N)nc5ccc(-n6cccn6)nc54)ccc32)CC1 [Example 46, 1-(4-{[(1S)-5-[2-(2-aminopyridin-3-yl)-5-(pyrazol-1-yl)imidazo[4,5-b]pyridin-3-yl]-2,3-dihydro-1H-inden-1-yl]amino}piperidin-1-yl)-2-fluoroprop-2-en-1-one] | 726 | – | > 10000 | – | –
5 | C=CC(=O)N1CCC(N[C@@H]2c3ccc(-n4c(-c5ccccc5)nc5ccc(-n6cccn6)nc54)cc3CC2F)CC1C(F)F (single isomer, unassigned) [Example 331, 1-((2*,4*)-2-(difluoromethyl)-4-(((1R,2*)-2-fluoro-5-(2-phenyl-5-(1H-pyrazol-1-yl)-3H-imidazo[4,5-b]pyridin-3-yl)-2,3-dihydro-1H-inden-1-yl)amino)piperidin-1-yl)prop-2-en-1-one] | 807 | 18.1 | 128 | – | –
6 | C=CC(=O)N1CCC(N[C@@H]2c3ccc(-n4c(-c5ccccc5)nc5ccc(-c6ccccc6)nc54)cc3CC2F)CC1 (single isomer, unassigned) [Example 325, 1-(4-{[(1R,2*)-5-{2,5-diphenylimidazo[4,5-b]pyridin-3-yl}-2-fluoro-2,3-dihydro-1H-inden-1-yl]amino}piperidin-1-yl)prop-2-en-1-one] | 298 | 7.92 | 101 | – | –
7 | C=CC(=O)N1CCC(N[C@@H]2c3ccc(-n4c(-c5cccnc5N)nc5ccc(C6CC6)nc54)cc3CC2F)CC1 (single isomer, unassigned) [Example 203, 1-(4-(((1R,2*)-5-(2-(2-aminopyridin-3-yl)-5-cyclopropyl-3H-imidazo[4,5-b]pyridin-3-yl)-2-fluoro-2,3-dihydro-1H-inden-1-yl)amino)piperidin-1-yl)prop-2-en-1-one] | – | 32.2 | 874 | – | 1760
8 | C=CC(=O)N1CCC(N[C@H]2CCc3cc(-n4c(-c5cccnc5N)nc5ccc(-n6cccn6)nc54)ccc32)CC1CC#N (single isomer, unassigned) [Example 326, 2-((2*,4*)-1-acryloyl-4-(((S)-5-(2-(2-aminopyridin-3-yl)-5-(1H-pyrazol-1-yl)-3H-imidazo[4,5-b]pyridin-3-yl)-2,3-dihydro-1H-inden-1-yl)amino)piperidin-2-yl)acetonitrile] | 98.8 | 7.25 | 29.3 | – | –
9 | C=CC(=O)N1CCC(N[C@H]2CCc3cc(-n4c(-c5cccnc5N)nc5ccc(-n6cccn6)nc54)ccc32)CC1CC#N (single isomer, unassigned) [Example 327, 2-((2*,4*)-1-acryloyl-4-(((S)-5-(2-(2-aminopyridin-3-yl)-5-(1H-pyrazol-1-yl)-3H-imidazo[4,5-b]pyridin-3-yl)-2,3-dihydro-1H-inden-1-yl)amino)piperidin-2-yl)acetonitrile] | 204 | 25.2 | 99.4 | – | –
10 | C=CC(=O)N1CCC(N[C@@H]2c3ccc(-n4c(-c5ccccc5)nc5ccc(-n6cccn6)nc54)cc3CC2F)CC1C(F)F (single isomer, unassigned) [Example 330, 1-((2*,4*)-2-(difluoromethyl)-4-(((1R,2*)-2-fluoro-5-(2-phenyl-5-(1H-pyrazol-1-yl)-3H-imidazo[4,5-b]pyridin-3-yl)-2,3-dihydro-1H-inden-1-yl)amino)piperidin-1-yl)prop-2-en-1-one] | 1480 | 31 | 69.3 | – | –
11 | C=CC(=O)N1CCC(N[C@@H]2c3ccc(-n4c(-c5ccccc5)nc5ccc(-c6ccccc6)nc54)cc3CC2F)CC1 (single isomer, unassigned) [Example 324, 1-(4-{[(1R,2*)-5-{2,5-diphenylimidazo[4,5-b]pyridin-3-yl}-2-fluoro-2,3-dihydro-1H-inden-1-yl]amino}piperidin-1-yl)prop-2-en-1-one] | 396 | 16.3 | 88.1 | – | –

Now from value to compound:

Row | IC50 [1] [nM] | IC50 [2] [nM] | IC50 [3] [nM] | IC50 ([4]; Homo sapiens, LAPC4, 72 h) [nM] | IC50 ([4]; 72 h) [nM] | Structure (SMILES)
12 | 418 | 21.4 | 549 | – | – | C=CC(=O)N1CCC(CC2CCc3cc(-n4c(-c5cccnc5N)nc5ccc(-n6cccn6)nc54)ccc32)CC1 (single isomer, unassigned) [Example 344, 1-(4-(((*)-5-(2-(2-aminopyridin-3-yl)-5-(1H-pyrazol-1-yl)-3H-imidazo[4,5-b]pyridin-3-yl)-2,3-dihydro-1H-inden-1-yl)methyl)piperidin-1-yl)prop-2-en-1-one]
13 | 523 | 16.4 | 25.4 | – | – | C=CC(=O)N1CCC(NC2c3ccc(-n4c(-c5cccnc5N)nc5ccc(-n6ccc(C7CC7)n6)nc54)cc3CC2F)CC1C(F)F (single isomer, unassigned) [Example 336, 1-((2*,4*)-4-(((1*,2*)-5-(2-(2-aminopyridin-3-yl)-5-(3-cyclopropyl-1H-pyrazol-1-yl)-3H-imidazo[4,5-b]pyridin-3-yl)-2-fluoro-2,3-dihydro-1H-inden-1-yl)amino)-2-(difluoromethyl)piperidin-1-yl)prop-2-en-1-one]
14 | 288 | 9.48 | 28.3 | – | – | C=CC(=O)N1CCC(NC2c3ccc(-n4c(-c5cccnc5N)nc5ccc(-n6ccc(C7CC7)n6)nc54)cc3CC2F)CC1C(F)F (single isomer, unassigned) [Example 335, 1-((2*,4*)-4-(((1*,2*)-5-(2-(2-aminopyridin-3-yl)-5-(3-cyclopropyl-1H-pyrazol-1-yl)-3H-imidazo[4,5-b]pyridin-3-yl)-2-fluoro-2,3-dihydro-1H-inden-1-yl)amino)-2-(difluoromethyl)piperidin-1-yl)prop-2-en-1-one]
15 | 86.1 | 6.65 | 15.9 | – | – | C=CC(=O)N1CCC(CC2CCc3cc(-n4c(-c5cccnc5N)nc5ccc(-n6cccn6)nc54)ccc32)CC1 (single isomer, unassigned) [Example 343, 1-(4-(((*)-5-(2-(2-aminopyridin-3-yl)-5-(1H-pyrazol-1-yl)-3H-imidazo[4,5-b]pyridin-3-yl)-2,3-dihydro-1H-inden-1-yl)methyl)piperidin-1-yl)prop-2-en-1-one]
16 | 268 | 34 | 63.5 | – | – | C=CC(=O)N1C[C@@H]2[C@H](C1)[C@@H]2NC1CCc2cc(-n3c(-c4cccnc4N)nc4ccc(-n5cccn5)nc43)ccc21 (stereo partly drawn) [Example 345, 1-[(1R,5S,6R)-6-({5-[2-(2-aminopyridin-3-yl)-5-(pyrazol-1-yl)imidazo[4,5-b]pyridin-3-yl]-2,3-dihydro-1H-inden-1-yl}amino)-3-azabicyclo[3.1.0]hexan-3-yl]prop-2-en-1-one]
17 | 137 | 6.75 | 23.5 | – | – | C=CC(=O)N1CCC(N[C@@H]2c3ccc(-n4c(-c5cccnc5N)nc5ccc(-n6ccc(C7CC7)n6)nc54)cc3CC2F)CC1C(F)F (single isomer, unassigned) [Example 334, 1-((2*,4*)-4-(((1*,2*)-5-(2-(2-aminopyridin-3-yl)-5-(3-cyclopropyl-1H-pyrazol-1-yl)-3H-imidazo[4,5-b]pyridin-3-yl)-2-fluoro-2,3-dihydro-1H-inden-1-yl)amino)-2-(difluoromethyl)piperidin-1-yl)prop-2-en-1-one]
